Assay results reported in patent US12655116B2, “Substituted isophthalic acid diamides” (Bayer Aktiengesellschaft, priority 2020, dated 2026).

Tests used:
[1] = test system: ECHCG; assay: Pre-emergence herbicidal action against ECHCG; format: in vivo, Echinochloa crus-galli; settings: Echinochloa crus-galli, 504 h
How it was run: (§1)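 Herbicidal effect was assessed 3 weeks after treatment by visual comparison with untreated controls, 100% denoting dead plants. Aqueous WP or EC preparations had been applied at 600 to 800 l/ha with 0.2% wetting agent to the soil covering freshly sown seeds.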

[2] = test system: AVEFA; assay: Pre-emergence herbicidal action against AVEFA; format: in vivo, Avena fatua; settings: Avena fatua, 504 h; 80 g/ha, pre-emergence
How it was run: as §1

[3] = test system: POLCO; assay: Post-emergence herbicidal action against POLCO; format: in vivo, Polygonum convolvulus; settings: Fallopia convolvulus, 504 h, dosage 20 g/ha
How it was run: (§2)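 Herbicidal effect was scored visually in percent after about 3 weeks in the greenhouse. Plants had been raised in sandy loam and treated post-emergence at the one-leaf stage with formulated compound at 600 to 800 l/ha water plus 0.2% wetting agent.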

[4] = test system: VERPE; assay: Pre-emergence herbicidal action against VERPE; format: in vivo, Veronica persica; settings: Veronica persica, 504 h; for pest or weed control at 80 g/ha: dosage 80 g/ha
How it was run: as §1

[5] = test system: MATIN; assay: Post-emergence herbicidal action against MATIN; format: in vivo, Matricaria inodora; settings: Tripleurospermum inodorum, 504 h; for pest or weed control at 5 g/ha: dosage 5 g/ha; for pest or weed control at 20 g/ha: dosage 20 g/ha
How it was run: as §2

[6] = test system: AMARE; assay: Post-emergence herbicidal action against AMARE; format: in vivo, Amaranthus retroflexus; settings: Amaranthus retroflexus, 504 h, 20 g/ha, visual assessment about 3 weeks after treatment, 100% = plants have died, 0% = like control plants
How it was run: as §2

[7] = test system: DIGSA; assay: Post-emergence herbicidal action against DIGSA; format: in vivo, Digitaria sanguinalis; settings: Digitaria sanguinalis, 504 h
How it was run: as §2

[8] = test system: VIOTR; assay: Post-emergence herbicidal action against VIOTR; format: in vivo, Viola tricolor; settings: Viola tricolor, 504 h
How it was run: as §2

[9] = test system: VIOTR; assay: Pre-emergence herbicidal action against VIOTR; format: in vivo, Viola tricolor; settings: Viola tricolor, 504 h; for pest or weed control at 20 g/ha: dosage 20 g/ha; for pest or weed control at 80 g/ha: dosage 80 g/ha
How it was run: as §1

[10] = test system: SETVI; assay: Pre-emergence herbicidal action against SETVI; format: in vivo, Setaria viridis; settings: Setaria viridis, 504 h; for pest or weed control at 80 g/ha: dosage 80 g/ha
How it was run: as §1

[11] = test system: PHBPU; assay: Pre-emergence herbicidal action against PHBPU; format: in vivo, Pharbitis purpurea; settings: Ipomoea purpurea, 504 h; for pest or weed control at 80 g/ha: dosage 80 g/ha
How it was run: as §1

[12] = test system: AMARE; assay: Pre-emergence herbicidal action against AMARE; format: in vivo, Amaranthus retroflexus; settings: Amaranthus retroflexus, 504 h, scored visually after 3 weeks vs untreated controls, 100% = plants have died, 0% = like control plants
How it was run: as §1

[13] = test system: ABUTH; assay: Post-emergence herbicidal action against ABUTH; format: in vivo, Abutilon theophrasti; settings: Abutilon theophrasti, 504 h, visual assessment about 3 weeks after treatment vs untreated controls; for pest or weed control at 5 g/ha: dosage 5 g/ha; for pest or weed control at 20 g/ha: dosage 20 g/ha
How it was run: as §2

[14] = test system: DIGSA; assay: Pre-emergence herbicidal action against DIGSA; format: in vivo, Digitaria sanguinalis; settings: Digitaria sanguinalis, 504 h; for pest or weed control at 20 g/ha: dosage 20 g/ha; for pest or weed control at 80 g/ha: dosage 80 g/ha
How it was run: as §1

[15] = test system: VERPE; assay: Post-emergence herbicidal action against VERPE; format: in vivo, Veronica persica; settings: Veronica persica, 504 h
How it was run: as §2

[16] = test system: ABUTH; assay: Pre-emergence herbicidal action against ABUTH; format: in vivo, Abutilon theophrasti; settings: Abutilon theophrasti, 504 h; for pest or weed control at 80 g/ha: scored visually after 3 weeks vs untreated controls (100% = plants have died, 0% = like control plants); for pest or weed control at 20 g/ha: dosage 20 g/ha, scored visually after 3 weeks vs untreated controls, 100% = plants have died, 0% = like control plants, read-out: Pre-emergence action against ABUTH (herbicidal activity in percent)
How it was run: as §1

[17] = test system: ECHCG; assay: Post-emergence herbicidal action against ECHCG; format: in vivo, Echinochloa crus-galli; settings: Echinochloa crus-galli, 504 h; for pest or weed control at 5 g/ha: dosage 5 g/ha; for pest or weed control at 20 g/ha: dosage 20 g/ha
How it was run: as §2

[18] = test system: SETVI; assay: Post-emergence herbicidal action against SETVI; format: in vivo, Setaria viridis; settings: Setaria viridis, 504 h; for pest or weed control at 5 g/ha: dosage 5 g/ha; for pest or weed control at 20 g/ha: dosage 20 g/ha
How it was run: as §2

[19] = test system: POLCO; assay: Pre-emergence herbicidal action against POLCO; format: in vivo, Polygonum convolvulus; settings: Fallopia convolvulus, 504 h, dosage 80 g/ha
How it was run: as §1

[20] = test system: MATIN; assay: Pre-emergence herbicidal action against MATIN; format: in vivo, Matricaria inodora; settings: Tripleurospermum inodorum, 504 h; for pest or weed control at 20 g/ha: dosage 20 g/ha; for pest or weed control at 80 g/ha: dosage 80 g/ha
How it was run: as §1

[21] = test system: ALOMY; assay: Pre-emergence herbicidal action against ALOMY; format: in vivo, Alopecurus myosuroides; settings: Alopecurus myosuroides, 504 h, pre-emergence
How it was run: as §1

[22] = test system: ALOMY; assay: Post-emergence herbicidal action against ALOMY; format: in vivo, Alopecurus myosuroides; settings: Alopecurus myosuroides, 504 h, dosage 20 g/ha, visual assessment about 3 weeks after treatment vs untreated controls
How it was run: as §2

Compound	pest or weed control at 80 g/ha [1] [%]	pest or weed control at 80 g/ha [2] [%]	pest or weed control at 20 g/ha [3] [%]	pest or weed control at 80 g/ha [4] [%]	pest or weed control at 5 g/ha [5] [%]	pest or weed control at 20 g/ha [5] [%]	pest or weed control at 20 g/ha [6] [%]	pest or weed control at 5 g/ha [7] [%]	pest or weed control at 20 g/ha [7] [%]	pest or weed control at 20 g/ha [8] [%]	pest or weed control at 20 g/ha [9] [%]	pest or weed control at 80 g/ha [9] [%]	pest or weed control at 80 g/ha [10] [%]	pest or weed control at 80 g/ha [11] [%]	pest or weed control at 20 g/ha [12] [%]	pest or weed control at 80 g/ha [12] [%]	pest or weed control at 5 g/ha [13] [%]	pest or weed control at 20 g/ha [13] [%]	pest or weed control at 20 g/ha [14] [%]	pest or weed control at 80 g/ha [14] [%]	other results
Cn1nnnc1NC(=O)c1ccc(C(F)F)c(C(=O)NC2CC2)c1C1CC1 [Example 1-306]	100	80	80	90	90	90	100	90	90	90	100	100	100	90	100	100	80	80	100	100	pest or weed control at 20 g/ha [15]: 90%; pest or weed control at 80 g/ha [16]: 100%; pest or weed control at 20 g/ha [16]: 100%; pest or weed control at 5 g/ha [17]: 90%; pest or weed control at 20 g/ha [17]: 90%; pest or weed control at 5 g/ha [18]: 90%; pest or weed control at 20 g/ha [18]: 90%; pest or weed control at 80 g/ha [19]: 90%; pest or weed control at 20 g/ha [20]: 100%; pest or weed control at 80 g/ha [20]: 100%
CCNC(=O)c1c(C(F)(F)F)ccc(C(=O)Nc2nnnn2CC)c1C1CC1 [Example 2-287]	100	80	100	100	90	90	100	90	90	90	100	100	100	80	100	100	80	80	100	100	pest or weed control at 20 g/ha ([1]; 20 g/ha): 90%; pest or weed control at 20 g/ha ([4]; dosage 20 g/ha): 90%; pest or weed control at 5 g/ha ([8]; 5 g/ha): 80%; pest or weed control at 20 g/ha ([10]; dosage 20 g/ha): 90%; pest or weed control at 20 g/ha ([11]; dosage 20 g/ha): 80%; pest or weed control at 5 g/ha ([15]; 5 g/ha): 80%; pest or weed control at 20 g/ha [15]: 100%; pest or weed control at 80 g/ha [16]: 100%; pest or weed control at 20 g/ha [16]: 100%; pest or weed control at 5 g/ha [17]: 80%; pest or weed control at 20 g/ha [17]: 80%; pest or weed control at 5 g/ha [18]: 80%; pest or weed control at 20 g/ha [18]: 90%; pest or weed control at 80 g/ha ([21]; 80 g/ha, scored visually after 3 weeks vs untreated controls (100% = plants have died, 0% = like control plants)): 90%; pest or weed control at 20 g/ha ([21]; 20 g/ha, scored visually after 3 weeks, 100% = plants have died, 0% = like control plants): 80%; pest or weed control at 20 g/ha [22]: 90%; pest or weed control at 80 g/ha [19]: 80%; pest or weed control at 20 g/ha [20]: 100%; pest or weed control at 80 g/ha [20]: 100%
